These results are taken from US6696093B2, “Aldehyde donors for stabilizing peroxides” (Lonza Inc., priority 2000, dated 2004).

A short description of data set [1]: H2O2 stabilization in papermaking process water (Example 1). The note with it: for H2O2 residual: 45° C. The method, then:
Process waters from a papermaking facility which uses recycled fibers were collected during a bleaching stage and allowed to stand for 2 hours to achieve total depletion of the hydrogen peroxide in the process waters.
Into five separate Pyrex beakers were placed 400 ml of the process water. One was retained as a control. 150 and 300 ppm of an aqueous solution containing 40% by weight of 1,3-bis(hydroxymethyl)-5,5-dimethylhydantoin (DMDMH) (Dantogard®) were added to two beakers for a total concentration of 60 ppm and 120 ppm of DMDMH, respectively. On an equivalent aldehyde basis, this corresponds to 0.65 mEq/l and 1.30 mEq/l, respectively. 150 and 300 ppm of an aqueous solution containing […] of glutaraldehyde were added to the remaining two beakers for a total concentration of 83 ppm and 166 ppm of glutaraldehyde, respectively. On an equivalent aldehyde basis, this corresponds to 1.66 mEq/l and 3.32 mEq/l, respectively. The samples were placed in a controlled water bath at 45° C. and stirred with a magnetic stirrer set on slow agitation.
To all the test samples, a sufficient volume of a 1% (by weight) hydrogen peroxide (H2O2) aqueous solution was added to achieve a concentration of 20-25 ppm of hydrogen peroxide in the samples. At regular time intervals, over a 45 minute period, aliquots were removed and analyzed for peroxide residual (i.e. the concentration of hydrogen peroxide) using a thiosulfate titration kit (HACH Test Kit, Model HYP-1, available from Hach Company of Loveland, Colo.). The results, shown in Table 1, correlate to the amount of peroxide present at the specific time interval, expressed as ppm of hydrogen peroxide.

The target of data set [2] is T1, catalase (Aspergillus niger, UniProt P55303).
T1 construct: purchased Sigma Aldrich C-3515; host or cells: A. niger derived
T1 sequence (P55303 whole entry): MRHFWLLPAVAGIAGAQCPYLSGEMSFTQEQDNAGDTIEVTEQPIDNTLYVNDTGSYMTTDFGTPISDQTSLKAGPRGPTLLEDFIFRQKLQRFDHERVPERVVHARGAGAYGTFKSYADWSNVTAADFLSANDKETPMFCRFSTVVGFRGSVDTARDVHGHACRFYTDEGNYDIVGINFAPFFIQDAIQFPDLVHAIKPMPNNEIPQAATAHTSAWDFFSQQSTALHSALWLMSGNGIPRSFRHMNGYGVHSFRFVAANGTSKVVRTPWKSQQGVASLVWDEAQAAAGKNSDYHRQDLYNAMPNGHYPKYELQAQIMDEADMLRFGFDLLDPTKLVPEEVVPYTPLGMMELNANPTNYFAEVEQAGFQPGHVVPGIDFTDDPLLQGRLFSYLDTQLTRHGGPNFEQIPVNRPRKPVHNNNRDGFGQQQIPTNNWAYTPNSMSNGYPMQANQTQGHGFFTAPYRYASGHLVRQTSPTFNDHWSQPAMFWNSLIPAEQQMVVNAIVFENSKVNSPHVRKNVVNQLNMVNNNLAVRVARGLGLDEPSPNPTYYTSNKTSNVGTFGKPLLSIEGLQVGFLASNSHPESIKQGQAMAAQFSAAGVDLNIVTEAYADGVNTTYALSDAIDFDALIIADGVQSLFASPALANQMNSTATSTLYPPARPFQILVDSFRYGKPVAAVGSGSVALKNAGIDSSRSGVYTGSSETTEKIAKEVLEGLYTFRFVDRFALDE
Put plainly: Catalase promoted hydrogen peroxide decomposition in phosphate buffer pH 7.0 (Example 6). The following applies: 526 ppm product. Type of data set: biochemical, A. niger. The method, then: Hydrogen peroxide solutions containing 470 ppm active peroxide in sterile Butterfield's phosphate buffer (pH=7.0) were treated with 1.2 units of catalase (A. niger available from Sigma Aldrich of St. Louis, Mo. (C-3515)) alone or with 263 or 526 ppm of Dantogard® 2000, available from Lonza Inc. of Fair Lawn, N.J., or 526 ppm of an aqueous 49% glutaraldehyde solution. Dantogard® 2000 is a 65% aqueous mixture of DMDMH, MMDMH and DMH having a minimal free formaldehyde concentration. The peroxide decomposition rate was monitored during the decrease in peroxide concentration from 390 to 350 ppm by ultraviolet absorbance at 240 nm. The temperature was 23° C.

Each structure is given as a SMILES string.

For `O=CCCCC=O` [Glutaraldehyde, glutaraldehyde], the H2O2 residual turned out to be 25 ppm H2O2 in data set [1] (83 ppm glutaraldehyde, 0 min); 24 ppm H2O2 in data set [1] (83 ppm glutaraldehyde, 10 min); 22 ppm H2O2 in data set [1] (83 ppm glutaraldehyde, 15 min); 20 ppm H2O2 in data set [1] (83 ppm glutaraldehyde, 20 min); 16 ppm H2O2 in data set [1] (83 ppm glutaraldehyde, 30 min); 14 ppm H2O2 in data set [1] (83 ppm glutaraldehyde, 40 min). In addition, the H2O2 residual in data set [1] (83 ppm glutaraldehyde, 45 min) is given as 12 ppm H2O2; in data set [1] (166 ppm glutaraldehyde, 0 min), 26 ppm H2O2; in data set [1] (166 ppm glutaraldehyde, 10 min), 24 ppm H2O2; in data set [1] (166 ppm glutaraldehyde, 15 min), 21 ppm H2O2; in data set [1] (166 ppm glutaraldehyde, 20 min) it was 19 ppm H2O2; in data set [1] (166 ppm glutaraldehyde, 30 min) it was 17 ppm H2O2. Moreover, the H2O2 residual came to 15 ppm H2O2 in data set [1] (166 ppm glutaraldehyde, 40 min) and 13 ppm H2O2 in data set [1] (166 ppm glutaraldehyde, 45 min). Also, the “Peroxide Decomposition Rate” value in data set [2] (1.2 units catalase, pH 7.0, 23° C., peroxide 390 to 350 ppm) worked out at 0.230 ppm/sec. Also, in data set [2] (control = 1.00), the “Normalized Decomposition Rate” value is 1.0.

`CC1(C)C(=O)N(CO)C(=O)N1CO` [DMDMH, 1,3-bis(hydroxymethyl)-5,5-dimethylhydantoin]: the H2O2 residual in data set [1] (60 ppm DMDMH, 0 min) was determined as 25 ppm H2O2; in data set [1] (60 ppm DMDMH, 10 min) it was 24 ppm H2O2; in data set [1] (60 ppm DMDMH, 15 min), 23 ppm H2O2; in data set [1] (60 ppm DMDMH, 20 min), 22 ppm H2O2; in data set [1] (60 ppm DMDMH, 30 min), 18 ppm H2O2; in data set [1] (60 ppm DMDMH, 40 min), 16 ppm H2O2. Also, the H2O2 residual in data set [1] (60 ppm DMDMH, 45 min) is given as 15 ppm H2O2; in data set [1] (120 ppm DMDMH, 0 min) it was 26 ppm H2O2; in data set [1] (120 ppm DMDMH, 10 min) it was 24 ppm H2O2; in data set [1] (120 ppm DMDMH, 15 min), 23 ppm H2O2; in data set [1] (120 ppm DMDMH, 20 min) it was 20 ppm H2O2; in data set [1] (120 ppm DMDMH, 30 min), 18 ppm H2O2. Moreover, the H2O2 residual came out at 17 ppm H2O2 in data set [1] (120 ppm DMDMH, 40 min) and 16 ppm H2O2 in data set [1] (120 ppm DMDMH, 45 min). Also, the “peroxide stabilization compared to glutaraldehyde” value in data set [1] (Table 1 comparison, ppm product basis) is “superior peroxide stabilization compared to glutaraldehyde”.
